Five compounds from paper PMC2873968, “Novel protein kinase D inhibitors cause potent arrest in prostate cancer cell growth and motility” (BMC Chemical Biology, 2010) can be followed below.

One test deals with PC3 cells. Put plainly: Wound healing assay. The format is cell-based. The note with it: 25 μM, 24 h. How it is done: (§1) Wound-induced migration was measured as described previously. Briefly, PC3 or DU145 cells were grown to confluence in 6-well plates. Migration was initiated by scraping the monolayer with a pipette tip, creating a "wound." The indicated concentration of compound was added to the media, and the wound was imaged immediately under an inverted phase-contrast microscope with 10× objective. After 24 h, cells were fixed in methanol and stained with 1% crystal violet, and a final image was taken. The wound gap was measured, and % wound healing was calculated. The average % wound healing was determined based on at least 9 measurements of the wound gap.
(§2) The analogs inhibited wound healing in prostate cancer cells. DU145 cells (A) or PC3 cells (B) were grown to confluence in 6-well plates. The monolayer was wounded and imaged immediately. Cells were then treated with either vehicle (DMSO) or analogs at indicated concentration for 24 hours. Cells were then fixed and stained with 0.5% crystal violet. Percentage wound closure was calculated as an average of 9 determinations for each concentration/compound as described under "Methods." Data shown are the mean ± S.E.M. for three independent experiments. Statistical significance versus the DMSO control was determined by unpaired t-test in GraphPad Prism V. ns, not statistically significant; *, p < 0.05; **, p < 0.01; ***, p < 0.001.

The test system of a further test is DU145 cells. Put plainly: Wound healing assay. Conditions: 25 μM, 24 h. The format is cell-based. On the procedure: as §1, §2
The next test concerns the target T1, PKD2 (Homo sapiens, UniProt Q9BZL6).
T1 sequence (Q9BZL6 1-878): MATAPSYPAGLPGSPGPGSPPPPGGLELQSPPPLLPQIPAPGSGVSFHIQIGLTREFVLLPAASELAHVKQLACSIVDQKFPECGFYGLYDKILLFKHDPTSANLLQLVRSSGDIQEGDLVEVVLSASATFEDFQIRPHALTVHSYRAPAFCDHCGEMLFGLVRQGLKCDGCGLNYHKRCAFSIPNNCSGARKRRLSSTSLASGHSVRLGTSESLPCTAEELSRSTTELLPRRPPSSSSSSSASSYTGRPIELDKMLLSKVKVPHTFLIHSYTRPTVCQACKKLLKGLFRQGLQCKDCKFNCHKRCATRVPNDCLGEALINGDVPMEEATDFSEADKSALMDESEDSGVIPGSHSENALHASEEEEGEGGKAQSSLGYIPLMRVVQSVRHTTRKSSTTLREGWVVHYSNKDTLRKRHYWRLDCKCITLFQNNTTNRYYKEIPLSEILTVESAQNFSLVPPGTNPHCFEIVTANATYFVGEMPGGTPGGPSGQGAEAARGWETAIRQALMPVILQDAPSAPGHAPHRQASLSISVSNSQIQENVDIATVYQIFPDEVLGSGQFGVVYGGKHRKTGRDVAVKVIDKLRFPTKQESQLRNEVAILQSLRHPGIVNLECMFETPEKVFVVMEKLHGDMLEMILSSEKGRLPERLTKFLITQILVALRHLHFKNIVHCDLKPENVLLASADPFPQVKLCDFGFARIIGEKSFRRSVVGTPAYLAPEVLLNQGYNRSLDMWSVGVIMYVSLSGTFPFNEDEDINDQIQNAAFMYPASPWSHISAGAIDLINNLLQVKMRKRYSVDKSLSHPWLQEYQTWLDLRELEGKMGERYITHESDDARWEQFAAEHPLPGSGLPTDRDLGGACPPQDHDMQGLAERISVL
Put plainly: In vitro radiometric PKD kinase assay. The format is biochemical. Further details: purchased SignalChem. The note with it: for IC50: radiometric kinase assay, mean ± S.E.M. How it is done: (§3) In vitro radiometric kinase assays were conducted as previously described. Briefly, 1 μCi [γ-^32P] ATP (PerkinElmer Life Sciences), 70 μM ATP, 50 ng purified recombinant human PKD1 (Biomol International, Plymouth Meeting, PA), PKD2 (SignalChem, Richmond, BC, Canada), or CAMKIIα (Enzo Life Sciences) or 75 ng PKD3 (Enzo Life Sciences), and 2.5 μg syntide-2 (Sigma) in 50 μl kinase buffer containing 50 mM Tris-HCl, pH 7.5, 4 mM MgCl2, and 10 mM β-mercaptoethanol. For the CAMK assay, 0.5 mM CaCl2 and 30 ng/μl calmodulin were pre-incubated for 10 min on ice, and then added to each reaction mixture. The reaction was incubated at 30°C for 10 min, and 25 μl of the reaction mixture was then spotted onto Whatman P81 filter paper (Whatman Inc., Clifton, NJ). The filter papers were washed 3 times in 0.5% phosphoric acid, air-dried, and counted using a Beckman LS6500 multipurpose scintillation counter (Beckman).
(§4) The in vitro inhibitory activities of the novel compounds toward PKD were determined using radiometric PKD kinase activity assays. Recombinant human PKD1, -2, or -3 was incubated with the substrate, syntide-2, in the presence of 10 different concentrations of each compound. IC50 values were determined for each compound by plotting percent PKD activity versus compound concentration for each point.

For the next test, the target named is T2, recombinant human PKD3 (Homo sapiens, UniProt O94806).
T2 construct: purchased Enzo Life Sciences
T2 sequence (O94806 1-890): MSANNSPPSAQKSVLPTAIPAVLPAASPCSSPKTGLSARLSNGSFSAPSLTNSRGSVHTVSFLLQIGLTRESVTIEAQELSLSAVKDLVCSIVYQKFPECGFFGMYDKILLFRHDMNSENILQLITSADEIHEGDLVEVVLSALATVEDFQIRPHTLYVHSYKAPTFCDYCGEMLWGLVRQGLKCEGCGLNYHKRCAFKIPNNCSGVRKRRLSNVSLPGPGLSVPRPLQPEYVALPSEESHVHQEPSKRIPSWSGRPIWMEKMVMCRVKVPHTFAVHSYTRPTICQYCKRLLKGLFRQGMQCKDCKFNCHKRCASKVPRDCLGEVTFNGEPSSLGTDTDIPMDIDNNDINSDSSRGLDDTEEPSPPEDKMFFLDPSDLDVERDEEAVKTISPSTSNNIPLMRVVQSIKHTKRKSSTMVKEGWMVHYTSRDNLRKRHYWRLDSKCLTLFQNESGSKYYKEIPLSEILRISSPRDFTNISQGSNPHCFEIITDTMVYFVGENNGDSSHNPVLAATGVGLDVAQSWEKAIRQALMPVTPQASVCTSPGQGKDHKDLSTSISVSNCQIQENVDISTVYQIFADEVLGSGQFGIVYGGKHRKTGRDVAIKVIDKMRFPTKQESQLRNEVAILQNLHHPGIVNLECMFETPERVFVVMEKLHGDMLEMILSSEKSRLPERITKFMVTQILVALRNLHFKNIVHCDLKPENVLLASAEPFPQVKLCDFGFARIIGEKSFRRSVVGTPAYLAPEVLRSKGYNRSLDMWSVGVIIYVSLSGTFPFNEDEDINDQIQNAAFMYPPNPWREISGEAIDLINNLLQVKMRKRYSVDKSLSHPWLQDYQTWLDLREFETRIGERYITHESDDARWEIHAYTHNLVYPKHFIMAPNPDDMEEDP
The test can be described thus: In vitro radiometric PKD kinase assay. Conditions: for IC50: radiometric kinase assay, mean ± S.E.M. The format is biochemical. How it is done:
as §3, §4

The term IC50 denotes the concentration at which inhibition is half-maximal. In the case of `O=C1NCCSc2c1sc1ccc(O)cc21` [kb-NB142-70], the wound closure with PC3 cells was 25-35%. In addition, in the test with DU145 cells, the wound closure was 25-35%. At PKD2, the “fold stronger inhibition of PKD2 than CID755673” value is listed as “about 4 fold” and the IC50 turned out to be 58.7 ± 4.2 nM. At recombinant human PKD3, the “fold stronger inhibition of PKD3 than CID755673” value is “about 4 fold” and the concentration for half-maximal inhibition (IC50) turned out to be 53.2 ± 3.5 nM.
As for `COc1ccc2sc3c(c2c1)SCCNC3=O` [kb-NB165-09], the wound closure in the test on PC3 cells and with DU145 cells was 25-35% throughout. The half-inhibitory concentration (IC50) against PKD2 worked out at 142 ± 7.4 nM; on recombinant human PKD3, 98.5 ± 15.3 nM.
On to `O=C1NCCSc2c1sc1ccc(O)c(I)c21` [kb-NB165-31], for which the wound closure with PC3 cells and in the test with DU145 cells was 55-60% throughout. Further, the 50% inhibitory concentration (IC50) at PKD2 was found to be 163 ± 20.5 nM; on recombinant human PKD3 it was 91.1 ± 17.2 nM.
Take `O=C1NCCCSc2c1sc1ccc(O)cc21` [kb-NB165-92]: the concentration for half-maximal inhibition (IC50) on PKD2 turned out to be 101 ± 10.9 nM; at recombinant human PKD3 it was 58.8 ± 7.3 nM. Further, on PKD2 (versus kb-NB142-70), the “fold reduction of potency for PKD2” value is on record as 2-4 fold. For the same compound, the “fold greater inhibition of PKD3 than PKD1 or -2” value at recombinant human PKD3 was “about 2 fold”. In addition, the “change of potency for PKD3” value at recombinant human PKD3 (versus kb-NB142-70) is “not altering potency”.
Take `COc1ccc2sc3c(c2c1)SCCCNC3=O` [kb-NB184-02]: the concentration for half-maximal inhibition (IC50) amounted to 463 ± 38.2 nM at PKD2 and 325 ± 39 nM on recombinant human PKD3.
